Experimental data published in patent US7820642B2, “Nandrolone 17β-carbonates” (The United States of America as represented by the …, priority 2005, dated 2010).
Entries after “also recorded” stand apart in the source; their conditions may differ.

Columns and labels:
Format in all cases: in vivo, rat
[1] = system: castrate Sprague-Dawley male rats; assay: Androgenic activity, Hershberger test (ventral prostate weight); settings: for Biological activity Potency Ratio: oral in 10% ethanol/sesame oil, methyltestosterone standard = 1.00, FIG. 11
Protocol: The androgenic activity was tested as follows (see, Hershberger et al., Proc. Soc. Exptl. Biol. Med., 83: 175-180 (1953)). Immature (approximately 21 day old) male rats of the Sprague-Dawley strain were orchidectomized under METOFANE® anesthesia and randomly assigned to groups of ten animals for each dose level of test material and vehicle controls. Animals were maintained under standard conditions of housing and had free access to food and water. Illumination was controlled for 14-hour periods of light and 10 hours of darkness. Test compounds were dissolved in 10% ethanol/sesame oil and administered by gavage (oral) or subcutaneous injection daily for seven consecutive days starting on the day of surgery. Animals were sacrificed 24 hours after the last dose and the ventral prostate and seminal vesicles excised, cleaned of fat and connective tissue, blotted on moist filter paper and weighed to the nearest 0.1 mg. Ventral prostate weight was used as the endpoint because ventral prostate is the more sensitive organ to androgenic stimulation.
Statistical analysis was performed by conventional methods using a PROPHET data management system operating on SUN Microsystems OS 4.1.1 (see e.g., Bliss, Cl (1952) The Statistics of Bioassay, New York, Academic Press; Hollister, C (1988), Nucleic Acids Research, 16:1873-1875.
Each data point represents the mean (n=10) and standard error of the mean (SEM) prostate weight for each dose level. The potency ratio and 95% confidence index are set forth below.

[2] = system: castrate Sprague-Dawley male rats; assay: Duration of androgenic activity after a single subcutaneous injection (ventral prostate weight, AUC); settings: for AUC of ventral prostate weight (duration of androgenic activity), standards: historical data, 1.2 mg single subcutaneous injection, testosterone undecanoate in aqueous suspension, testosterone enanthate in sesame oil; for Duration of androgenic activity (in words): single subcutaneous injection in aqueous vehicle; for AUC of ventral prostate weight (duration of androgenic activity): 14 weeks
Protocol: Duration of androgenic activity was determined as follows. Immature (22 days of age) male rats of the Sprague-Dawley CD strain were orchidectomized under METOFANE anesthesia and randomly assigned to groups of forty or more animals. Animals were maintained under standard conditions of housing and had free access to food and water. Illumination was controlled for 14-hour periods of light and 10 hours of darkness. Animals received a single subcutaneous injection of 0.6 mg of test material in aqueous suspending vehicle (ASV) and/or an oily vehicle (10% ethanol/sesame oil, sesame oil containing 5 mg/ml chlorobutanol as a preservative or ethyl oleate) on the day of surgery. Controls received vehicle alone. Testosterone enanthate in sesame oil was used as a standard. In cases where the test material was not solid at room temperature, i.e., a wax or oil, 10% ethanol/sesame oil or ethyl oleate was used as a vehicle. Five rats from each group were sacrificed at weekly or biweekly intervals and seminal vesicle and ventral prostate glands were excised, cleaned of adherent fat and connective tissue and weighed to the nearest 0.1 mg. Ventral prostate weight was used as the endpoint because it is the more sensitive organ to androgenic stimulation. Area under the curve (AUC) was calculated by the trapezoidal rule.
Each data point represents the mean (n=5) and standard error of the mean (SEM) prostate weight for each time period. […] In FIG. 8, the data for 1.2 mg dose groups are shown together with historical data for testosterone undecanoate in aqueous suspension and testosterone enanthate in sesame oil as standards. Both testosterone undecanoate and testosterone enanthate are commercially available.

[3] = Serum levels of dimethandrolone (CDB-1321) and immunoreactive metabolites by radioimmunoassay; set-up: AUC of serum concentration of dimethandrolone and immunoreactive metabolites: unit not given here; settings: for AUC of serum concentration of dimethandrolone and immunoreactive metabolites: n=5, FIG. 9
Protocol: Serum levels of testosterone and CDB-1321 were determined as follows. Rats from a duration of androgenic activity study were exsanguinated at autopsy, serum prepared by allowing blood to clot at room temperature and the sample frozen for subsequent radioimmunoassay. A radioimmunoassay for the free alcohol, 7a, 11β-dimethyl-19-nortestosterone, was developed using antisera generated in rabbits against the 3-carboxymethyloxime-BSA conjugate and employing the corresponding histamine conjugate for iodination as tracer.

[4] = system: luteinizing hormone (rLH); assay: Serum rLH in castrate male rats
Protocol: FIG. 14 depicts the serum levels of rLH as a function of time for groups 2 and 4 of the animals. Serum rLH were measured in the blood from castrate male rats following fourteen daily 12 mg/kg oral doses of CDB-4719A (dimethandrolone 17β-decylcarbonate, filled circles, group 2) or CDB-4521C (dimethandrolone 17β-undecanoate, open triangles, group 4) in 10% ethanol/sesame oil on days 0-13. Samples from weeks −1 to 6 or from weeks 7 to 9 and repeats were assayed as described in the protocols MEL-480AD using [^125I]-rLH or MEL-480AE, AG using [^125I]-rLH. The limit of detection shown as dotted line, or EC90, was the mean of 0.13, 0.14, or 0.16 in the first assay and 0.17, 0.22, or 0.21 ng/ml in the second series of assays based on 200 μl of serum per tube.
FIG. 15 depicts the serum levels of rLH as a function of time for groups 1 and 3 of the animals. Serum rLH were measured in the blood from castrate male rats following a single 12 mg/kg subcutaneous injection of CDB-4719A (dimethandrolone 17β-decylcarbonate, filled circles, group 1) or CDB-4521C (dimethandrolone 17β-undecanoate, open triangles, group 3) in an aqueous suspending vehicle on day 0. Samples from weeks −1 to 6 or from weeks 7 to 22 and repeats were assayed as described in the protocols MEL-480AD using [^125I]-rLH or MEL-480AE, AG, AH using [^125I]-rLH. The limit of detection shown as dotted line, or EC90, was the mean of 0.13, 0.14, or 0.16 in the first assay and 0.17, 0.22, or 0.21 ng/ml in the second series of assays based on 200 μl of serum per tube.
Carbonates of the invention, in embodiments, can be used to suppress luteinizing hormone in a mammal for extended periods of time. […] CDB-4719A (dimethandrolone 17β-decylcarbonate) was administered to castrate male rats, daily at 12 mg/kg oral doses, and CDB-4521C (dimethandrolone 17β-undecanoate) was administered in 10% ethanol/sesame oil, on days 0-13. […] This observation could have advantageous clinical implications, for example, in obtaining sustained suppression of the luteinizing hormone or hormone replacement therapy. In addition, this could have an advantage by providing a facile treatment using oral compositions such as tablets or capsules of the carbonates of the invention in suppressing hormone levels. Such treatment can be advantageous relative to a treatment involving parenteral (e.g., subcutaneous) administration of a drug such as the ester drug. Patient compliance is better with oral formulations than injections.
FIG. 15 provides a comparison between CDB-4719A (dimethandrolone 17β-decylcarbonate) and CDB-4521C (dimethandrolone 17β-undecanoate). A single dose (12 mg/kg) of the compound was administered to castrate male rats by subcutaneous injection in an aqueous suspending vehicle on day 0. The serum rLH concentration was monitored over a 22-week period and beyond.

[5] = fourteen daily 12 mg/kg oral doses in 10% ethanol/sesame oil, days 0-13, FIG. 14
[6] = single subcutaneous injection of 0.6 mg in aqueous suspending vehicle
[7] = single subcutaneous injection of 1.2 mg in aqueous suspending vehicle
[8] = oral, daily for 7 days in 10% ethanol/sesame oil, CDB 110 (methyltestosterone) = 1.000 assigned, FIG. 5, ranges did not pass all significance tests
[9] = subcutaneous injection, daily for 7 days, CBD-111 (testosterone) = 1.000 assigned, FIG. 6, footnote 2 values did not pass all significance tests

C[C@]12CCC(=O)C=C1CC[C@@H]1[C@@H]2CC[C@@]2(C)[C@H]1CC[C@]2(C)O [CDB-110B, methyltestosterone, reference compound]
Biological activity Potency Ratio [1]: 1.00 (assigned)

CCCCCCC(=O)O[C@H]1CC[C@H]2[C@@H]3CCC4=CC(=O)CC[C@]4(C)[C@H]3CC[C@]12C [CDB-112, testosterone enanthate, reference compound]
AUC of ventral prostate weight (duration of androgenic activity), standards [2]: 760 mg·week

C[C@@H]1CC2=CC(=O)CC[C@@H]2[C@@H]2[C@@H]1[C@@H]1CC[C@H](O)[C@@]1(C)C[C@@H]2C [CDB-1321, 7a, 11β-dimethyl-19-nortestosterone, reference compound]
Serum levels of the free alcohol after giving the free alcohol itself ([3]; first 3 weeks, limit of detection 63 pg/ml): barely above the limit of detection

CCCCCCCCCCC(=O)O[C@H]1CC[C@H]2[C@@H]3CCC4=CC(=O)CC[C@]4(C)[C@H]3CC[C@]12C [CDB-3122E, testosterone undecanoate, reference compound]
AUC of ventral prostate weight (duration of androgenic activity), standards [2]: 494 mg·week

CCCCCCCCCCC(=O)O[C@H]1CC[C@H]2[C@H]3[C@H]([C@@H](C)C[C@]12C)[C@H]1CCC(=O)C=C1C[C@H]3C [CDB-4521C, dimethandrolone 17β-undecanoate, reference compound]
Serum rLH after administration was discontinued [4, 5]: bounced back and increased beyond the pretreatment level | Serum rLH during administration [4, 5]: remained suppressed | Serum rLH up to 16 weeks post administration ([4]; single 12 mg/kg subcutaneous injection in aqueous suspending vehicle on day 0, FIG. 15): remains suppressed | Serum rLH after 16 weeks ([4]; single 12 mg/kg subcutaneous injection in aqueous suspending vehicle on day 0, monitored over 22 weeks, FIG. 15): rose after 16 weeks

COC(=O)O[C@H]1CC[C@H]2[C@H]3[C@H]([C@@H](C)C[C@]12C)[C@H]1CCC(=O)C=C1C[C@H]3C [CDB-4718, 17β-Methoxycarbonyloxy-7α,11β-dimethylestr-4-en-3-one]
Duration of androgenic activity (in words) [2]: short duration of action | AUC of ventral prostate weight (duration of androgenic activity) [2, 6]: 581 mg·week | AUC of ventral prostate weight (duration of androgenic activity) [2, 7]: 789 mg·week | AUC of serum concentration of dimethandrolone and immunoreactive metabolites [3, 6]: 2848 | AUC of serum concentration of dimethandrolone and immunoreactive metabolites [3, 7]: 3336 | Androgenic activity Potency Ratio [1, 8]: about two and one-half times | Androgenic activity Potency Ratio ([1]; oral, daily for 7 days in 10% ethanol/sesame oil, CDB 110 (methyltestosterone) = 1.000 assigned, FIG. 5, ranges did not pass all significance tests, listed as 4718): 2.609^1 | Androgenic activity Potency Ratio [1, 9]: 10.4-47.5 | Androgenic activity Potency Ratio ([1]; subcutaneous injection, daily for 7 days, CBD-111 (testosterone) = 1.000 assigned, FIG. 6, footnote 2 values did not pass all significance tests, listed as 4718): 10.4-47.5^1,2

CCCCCCCCCCCCOC(=O)O[C@H]1CC[C@H]2[C@H]3[C@H]([C@@H](C)C[C@]12C)[C@H]1CCC(=O)C=C1C[C@H]3C [CDB-4730, 17β-Dodecyloxycarbonyloxy-7α,11β-dimethylestr-4-en-3-one]
Duration of androgenic activity (in words) [2]: far more potent; also recorded: exhibited similar long-acting activity | Serum levels of dimethandrolone and immunoreactive metabolites over time ([3]; single subcutaneous dose of 0.6 or 1.2 mg per rat in aqueous suspending vehicle, FIG. 16): decreased with time as expected | Androgenic activity Potency Ratio [1, 8]: 0.97-3.82 | Androgenic activity Potency Ratio ([1]; oral, daily for 7 days in 10% ethanol/sesame oil, CDB 110 (methyltestosterone) = 1.000 assigned, FIG. 5, ranges did not pass all significance tests, listed as 4730): 0.97-3.82^1,2 | Potency as percent of the subcutaneous standard, testosterone ([1]; subcutaneous injection): 5% | Androgenic activity Potency Ratio [1, 9]: 0.05^1,2

CCCCCCOC(=O)O[C@H]1CC[C@H]2[C@H]3[C@H]([C@@H](C)C[C@]12C)[C@H]1CCC(=O)C=C1C[C@H]3C [CDB-4731, 17β-Hexyloxycarbonyloxy-7α,11β-dimethylestr-4-en-3-one]
Androgenic activity Potency Ratio [1, 8]: 1.18-3.27 | Androgenic activity Potency Ratio ([1]; oral, daily for 7 days in 10% ethanol/sesame oil, CDB 110 (methyltestosterone) = 1.000 assigned, FIG. 5, ranges did not pass all significance tests, listed as 4731): 1.18-3.27^1,2 | Androgenic activity Potency Ratio [1, 9]: 32 | Androgenic activity Potency Ratio ([1]; subcutaneous injection, daily for 7 days, CBD-111 (testosterone) = 1.000 assigned, FIG. 6, footnote 2 values did not pass all significance tests, listed as 4731): 32.0^1,2

CC1C[C@@]2(C)C(=CC[C@@H]2OC(=O)OC23CC4CC(CC(C4)C2)C3)[C@H]2[C@H]1[C@H]1CCC(=O)C=C1C[C@H]2C (stereo partly drawn) [CDB-4750A, 17β-Adamantyloxycarbonyloxy-7α,11-dimethylestra-4,14-dien-3-one]
AUC of ventral prostate weight (duration of androgenic activity) [2, 6]: 326 mg·week | AUC of ventral prostate weight (duration of androgenic activity) [2, 7]: 759 mg·week

CCCCCCCCCCCCOC(=O)OC1CC[C@H]2[C@@H]3CCC4=CC(=O)CC[C@@H]4[C@H]3[C@@H](C)C[C@]12C (stereo partly drawn) [CDB-4754, 11β-Methyl-17-dodecyloxycarbonyloxy estr-4-en-3-one]
AUC of ventral prostate weight (duration of androgenic activity) [2, 6]: 564 mg·week | AUC of ventral prostate weight (duration of androgenic activity) [2, 7]: 974 mg·week

CCCCCCCCCC(=O)OC1CCC2C3C(C)CC4=CC(=O)CCC4C3C(C)CC12C (stereo not drawn) [CDB-4756, dimethandrolone decanoate, reference compound]
Biological activity Potency Ratio [1]: 2.13-7.56

CCCCCCCCCCOC(=O)O[C@H]1CC[C@H]2[C@@H]3CCC4=CC(=O)CC[C@@H]4[C@H]3[C@@H](C)C[C@]12C [CDB-4757, 11β-Methyl-17β-decyloxycarbonyloxyestr-4-en-3-one]
Biological activity Potency Ratio [1]: 1.96
